These results are taken from patent US20060035901A1, “Methotrexate derivatives useful for treating cancer and arthritis” (Serenex, Inc., priority 2004, published 2006).

For assay [1], the target named is T1, propionyl-CoA carboxylase subunit beta (PCCB) (Sus scrofa, UniProt P79384).
T1 construct: a porcine liver proteome was run over an ATP-Sepharose™ column; from tissue; host or cells: porcine liver
T1 sequence (P79384 29-539): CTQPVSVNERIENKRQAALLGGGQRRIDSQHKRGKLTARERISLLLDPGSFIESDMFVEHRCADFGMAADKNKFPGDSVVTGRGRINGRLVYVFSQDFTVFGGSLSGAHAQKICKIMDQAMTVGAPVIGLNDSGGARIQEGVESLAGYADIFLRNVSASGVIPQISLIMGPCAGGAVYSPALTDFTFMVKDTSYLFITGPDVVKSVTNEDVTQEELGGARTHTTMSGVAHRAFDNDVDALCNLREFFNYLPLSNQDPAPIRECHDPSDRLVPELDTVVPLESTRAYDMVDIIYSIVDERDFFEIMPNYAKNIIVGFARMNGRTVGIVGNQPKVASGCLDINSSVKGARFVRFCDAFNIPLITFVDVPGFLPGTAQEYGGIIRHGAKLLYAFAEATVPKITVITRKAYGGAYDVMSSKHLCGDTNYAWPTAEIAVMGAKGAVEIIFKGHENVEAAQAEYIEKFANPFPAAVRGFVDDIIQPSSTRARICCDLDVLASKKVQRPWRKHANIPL
T1 sequence (P0DTA4 53-730 partner): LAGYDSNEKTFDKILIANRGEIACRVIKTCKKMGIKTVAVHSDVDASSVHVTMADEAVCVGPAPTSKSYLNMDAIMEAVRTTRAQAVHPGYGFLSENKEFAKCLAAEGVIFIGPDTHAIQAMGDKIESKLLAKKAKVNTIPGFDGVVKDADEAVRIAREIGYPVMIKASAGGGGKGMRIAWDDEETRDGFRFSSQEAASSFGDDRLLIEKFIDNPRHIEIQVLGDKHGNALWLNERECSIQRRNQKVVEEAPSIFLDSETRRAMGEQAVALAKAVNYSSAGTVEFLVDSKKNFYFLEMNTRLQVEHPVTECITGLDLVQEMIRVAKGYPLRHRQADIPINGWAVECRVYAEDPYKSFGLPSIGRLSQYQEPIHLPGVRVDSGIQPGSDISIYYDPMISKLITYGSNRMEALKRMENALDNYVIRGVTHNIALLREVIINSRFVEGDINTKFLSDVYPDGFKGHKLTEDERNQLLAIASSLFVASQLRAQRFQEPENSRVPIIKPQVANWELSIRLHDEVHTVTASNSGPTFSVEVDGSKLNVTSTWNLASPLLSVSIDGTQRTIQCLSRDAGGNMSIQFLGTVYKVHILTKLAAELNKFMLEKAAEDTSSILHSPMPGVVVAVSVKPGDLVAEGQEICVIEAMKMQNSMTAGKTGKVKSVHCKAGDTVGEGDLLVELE
As to the kind of experiment: Elution of PCCB from ATP-Sepharose column loaded with porcine liver proteome, IC50 estimate. The following applies: estimated from percent of protein eluted from ATP-Sepharose column, read-out: Approximate IC50 for PCCB. In kind it is binding. The protocol:
Similar experiments were carried out to compare the IC50 values for PYC, PCCA, and PCCB. In these trials, a porcine liver proteome was run over an ATP-Sepharose™ column to bind all purine-binding proteins. The ATP-Sepharose™ column was washed several times, and then eluted with the compound of Formula III at concentrations of 1 μM, 5 μM, 10 μM, 50 μM, 100 μM, and 500 μM to identify proteins that bound to this compound.
(§1) Gels were stained with a fluorescent stain such as sypro ruby (a highly sensitive fluorescent protein stain that can readily detect less than 1 fmol of total protein, i.e., less than 0.04 ng for a 40 kDa protein). The gels were imaged using a standard flat bed gel imager and the amount of protein estimated by densiometry. The percent of protein eluted from the column at each concentration was determined and IC50 values were calculated from these estimates. Where necessary, the eluted proteins were cut out of the gel, and identified using mass spectral techniques.
The values obtained were then compared to those for DHFR.

The target of a further assay is Her2 (Homo sapiens, UniProt P04626). As to the kind of experiment: Elution of Her2 from ATP-Sepharose column by compound (Proteome Mining), IC50 estimate. In kind it is binding. The following applies: estimated from percent of protein eluted from ATP-Sepharose column, gel densitometry; read-out: Approximate IC50 for Her2. The protocol: as §1, with “A proteome containing a known quantity of Her2, EGFR, and B-Raf was run over an ATP-Sepharose™ column in order to bind all purine-binding proteins. […] The ATP-Sepharose™ was washed several times, and then eluted with the compound of Formula III. The experiment was run in duplicate at concentrations of 20 μM, 100 μM, and 500 μM of the compound of Formula III. The eluted fractions were run on a 1-dimensional SDS polyacrylamide gel. Gels” for “Gels”

A further assay addresses T2, DHFR (Homo sapiens, UniProt P00374).
T2 sequence (P00374 1-187): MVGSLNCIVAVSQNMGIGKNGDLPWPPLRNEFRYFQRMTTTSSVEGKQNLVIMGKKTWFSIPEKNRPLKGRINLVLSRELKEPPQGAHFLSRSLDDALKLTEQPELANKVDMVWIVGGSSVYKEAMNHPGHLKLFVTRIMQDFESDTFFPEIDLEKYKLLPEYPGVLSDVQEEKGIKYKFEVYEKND
Kind of assay: DHFR enzymatic assay. The format is biochemical. The note with it: determined by enzymatic assay.

Chain of Her2 (P04626 23-1255, species assumed): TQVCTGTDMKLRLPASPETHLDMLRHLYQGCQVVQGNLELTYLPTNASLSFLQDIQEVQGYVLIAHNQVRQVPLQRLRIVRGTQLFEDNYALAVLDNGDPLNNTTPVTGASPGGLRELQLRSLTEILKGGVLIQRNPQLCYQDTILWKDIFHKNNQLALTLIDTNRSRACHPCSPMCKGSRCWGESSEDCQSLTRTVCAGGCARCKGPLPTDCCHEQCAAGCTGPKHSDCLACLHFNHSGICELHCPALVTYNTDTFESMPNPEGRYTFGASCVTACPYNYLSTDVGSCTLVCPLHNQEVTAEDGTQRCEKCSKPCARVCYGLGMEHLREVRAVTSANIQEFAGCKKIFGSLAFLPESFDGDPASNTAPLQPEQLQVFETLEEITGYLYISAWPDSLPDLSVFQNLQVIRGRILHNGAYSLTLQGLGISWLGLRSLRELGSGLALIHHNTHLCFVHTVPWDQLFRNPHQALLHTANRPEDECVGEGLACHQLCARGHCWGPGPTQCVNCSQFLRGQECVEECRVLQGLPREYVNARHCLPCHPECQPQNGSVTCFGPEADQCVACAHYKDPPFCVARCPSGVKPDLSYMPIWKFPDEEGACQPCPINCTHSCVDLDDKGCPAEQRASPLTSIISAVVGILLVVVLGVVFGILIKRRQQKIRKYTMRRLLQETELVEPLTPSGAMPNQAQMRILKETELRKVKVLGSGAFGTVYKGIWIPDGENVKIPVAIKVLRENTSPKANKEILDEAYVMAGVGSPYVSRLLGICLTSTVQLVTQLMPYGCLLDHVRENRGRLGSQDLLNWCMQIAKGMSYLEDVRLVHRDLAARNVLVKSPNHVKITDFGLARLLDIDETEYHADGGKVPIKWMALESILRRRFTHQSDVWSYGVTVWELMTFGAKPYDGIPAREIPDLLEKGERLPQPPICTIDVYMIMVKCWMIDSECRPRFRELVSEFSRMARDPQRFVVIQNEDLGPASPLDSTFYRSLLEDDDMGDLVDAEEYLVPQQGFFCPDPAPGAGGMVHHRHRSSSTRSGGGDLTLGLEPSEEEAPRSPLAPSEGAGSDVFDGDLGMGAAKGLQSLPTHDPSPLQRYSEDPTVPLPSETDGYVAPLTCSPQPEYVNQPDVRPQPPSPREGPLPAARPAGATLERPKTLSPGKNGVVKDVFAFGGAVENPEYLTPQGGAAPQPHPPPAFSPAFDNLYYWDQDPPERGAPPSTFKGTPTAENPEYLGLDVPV

As a reminder, the IC50 is the concentration at which inhibition is half-maximal. Consider `C#CCN(Cc1cnc2nc(N)nc(N)c2n1)c1ccc(C(=O)NC(CCC(=O)O)C(=O)O)cc1OC` (stereo not drawn) [Formula VIII], for which the IC50 in assay [1] is 3.5 µM; at Her2, 5 µM; against DHFR, 15 nM.
In the same order, the values of `Cc1cc(C(=O)NC(CCC(=O)O)C(=O)O)ccc1N(Cc1ccoc1)Cc1cnc2nc(N)nc(N)c2n1` (stereo not drawn) [Formula VII] are 3 µM, 5 µM and 15 nM.
On to `C#CCN(Cc1cnc2nc(N)nc(N)c2n1)c1ccc(C(=O)NC(CCC(=O)O)C(=O)O)cc1C` (stereo not drawn) [Formula III, 2-{4-[(2,4-diamino-pteridin-6-ylmethyl)-prop-2-ynyl-amino]-3-methyl-benzoylamino}-pentanedioic acid], for which the IC50 in assay [1] is 3.5 µM; at Her2 it was 0.9 µM; against DHFR, 10 nM.
In the same order, the values of `C#CCN(Cc1cnc2nc(N)nc(N)c2n1)c1ccc(C(=O)NC(CCC(=O)O)C(=O)O)cc1OC(F)(F)F` (stereo not drawn) [Formula IX] are 14 µM, 7.5 µM and 118 nM.
